In US8497256B2, “Formulations and uses of 2-hydroxy-5-phenylazobenzoic acid derivatives for the treatment of males” (Salix Pharmaceuticals, Ltd, priority 2010, dated 2013):
Structures can show the parent of a compound that is named as a salt. Where two headings read alike, the source gives them in different places. Marks after values point to notes of the source that are not given here.

How the values were obtained:
CYP2D6 [1] = target: T1, CYP2D6 (Homo sapiens, UniProt P10635); details: microsomes
clinical [2] = assay: clinical
Excerpt: Before further description and in order that the invention may be more readily understood, certain terms are first defined and collected here for convenience. Common pharmacologic term used herein refer are as follows: Tmax (time to maximum concentration); Cmax (observed maximum concentration); kel (slope of terminal linear portion of concentration/time curve); T1/2 (half-life of balsalazide calculated as: 0.693/Kel); AUC(last) (area under the curve to last quantifiable concentration as measured by the trapezoidal rule); and AUC(inf) (the AUC value extrapolated to infinity calculated as: AUC(inf)=AUC(last)+C(t)last/Kel where C(t) last is the last measurable concentration).

[3] = Food effect on pharmacokinetics, single 3.3 g dose of GIAZO; details: single dose 3.3 g GIAZO; for Change (reduction) of AUC0-∞ under fed conditions / Reduction of mean Cmax under fed conditions: high-fat meal vs fasted; for Tmax: human, plasma, po, 3.3 g, Median Tmax
CYP2C19 [4] = target: T2, CYP2C19 (Homo sapiens, UniProt P33261); details: microsomes
CYP1A2 [5] = target: T3, CYP1A2 (Homo sapiens, UniProt P05177); details: microsomes
T3 sequence (P05177 1-516): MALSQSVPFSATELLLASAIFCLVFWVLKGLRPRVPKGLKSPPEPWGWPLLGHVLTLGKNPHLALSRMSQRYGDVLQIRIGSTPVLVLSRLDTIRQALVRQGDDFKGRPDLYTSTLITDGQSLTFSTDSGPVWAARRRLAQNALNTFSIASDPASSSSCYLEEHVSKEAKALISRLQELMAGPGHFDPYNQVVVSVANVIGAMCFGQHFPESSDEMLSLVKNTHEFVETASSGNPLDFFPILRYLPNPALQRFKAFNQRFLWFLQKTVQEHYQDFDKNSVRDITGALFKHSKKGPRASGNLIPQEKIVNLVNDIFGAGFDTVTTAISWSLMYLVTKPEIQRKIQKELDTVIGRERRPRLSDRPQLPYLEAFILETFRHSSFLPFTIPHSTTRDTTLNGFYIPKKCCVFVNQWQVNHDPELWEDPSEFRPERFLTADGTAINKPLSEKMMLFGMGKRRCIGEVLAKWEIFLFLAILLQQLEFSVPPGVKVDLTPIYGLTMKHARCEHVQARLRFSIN

CYP3A4/5 [6] = details: microsomes
CYP2C9 [7] = target: T4, CYP2C9 (Homo sapiens, UniProt P11712); details: microsomes
human plasma proteins [8] = assay: Plasma protein binding
human plasma proteins [9] = test system: human plasma proteins
clinical [10] = details: human, in vivo, po, 3.3 g, Median Tmax
[11] = human, in vivo, po, 3.3 g
[12] = cited from earlier work
CYP2C19 [13] = target: T2, CYP2C19; assay: CYP inhibition in human liver microsomes
CYP1A2 [14] = target: T3, CYP1A2; assay: CYP inhibition in human liver microsomes
CYP3A4/5 [15] = assay: CYP inhibition in human liver microsomes
CYP2C9 [16] = target: T4, CYP2C9; assay: CYP inhibition in human liver microsomes
CYP2D6 [17] = target: T1, CYP2D6; assay: CYP inhibition in human liver microsomes
[18] = test system: Chinese hamster lung cell (CH V79/HGPRT); type: cell-based
Excerpt: (§1) For a 50 kg person of average height this dose represents 2.5 times the recommended human dose on a body surface area basis. Balsalazide disodium was not genotoxic in the following in vitro or in vivo tests: Ames test, human lymphocyte chromosomal aberration test, and mouse lymphoma cell (L5178Y/TK+/−) forward mutation test, or mouse micronucleus test. However, it was genotoxic in the in vitro Chinese hamster lung cell (CH V79/HGPRT) forward mutation test.

human lymphocyte = assay: Human lymphocyte chromosomal aberration test; type: cell-based; details: in vitro
Excerpt: as §1
(§2) The compound 4-aminobenzoyl-β-alanine, a metabolite of balsalazide disodium, was not genotoxic in the Ames test and the mouse lymphoma cell (L5178Y/TK+/−) forward mutation test but was positive in the human lymphocyte chromosomal aberration test. N-acetyl-4-aminobenzoyl-β-alanine, a conjugated metabolite of balsalazide disodium, was not genotoxic in Ames test, the mouse lymphoma cell (L5178Y/TK+/−) forward mutation test, or the human lymphocyte chromosomal aberration test.

Ames test = type: cell-based; details: in vitro
Excerpt: as §1, §2

[19] = Solubility of balsalazide disodium; type: physicochemical
Excerpt: It is a stable, odorless, orange to yellow, microcrystalline powder. […] Balsalazide disodium has the chemical name (E)-5-[[-4-[[(2-carboxyethyl) amino]carbonyl]phenyl]azo]-2-hydroxybenzoic acid, disodium salt, dihydrate (Molecular Weight: 437.32; Molecular Formula: C17H13N3O6Na2.2H2O).
Each GIAZO tablet contains 1.1 g of balsalazide disodium, film-coated for oral delivery. Balsalazide disodium is insoluble in acid, but soluble at a pH of at least 4.5. […] The sodium content of each tablet is approximately 126 mg.
Mesalamine is 5-aminosaliacylic acid and appears to act topically.

[20] = Reproduction / fertility studies in rats; type: in vivo, rat; details: oral doses up to 2 g/kg/day
Excerpt: (§3) There are, however, no adequate and well-controlled studies in pregnant women. Because animal reproduction studies are not always predictive of human response, this drug should be used during pregnancy only if clearly needed.
as §2

[21] = test system: mouse lymphoma cell (L5178Y/TK+/−); assay: Mouse lymphoma cell forward mutation test; type: cell-based; details: in vitro
Excerpt: as §1, §2

[22] = Reproduction studies in rabbits; type: in vivo, rabbit; details: oral doses up to 2 g/kg/day
Excerpt: as §3

Mouse micronucleus test = details: in vivo
Excerpt: as §1

[23] = 24-month rat carcinogenicity study; type: in vivo, rat (Sprague Dawley); details: 24 months, oral (dietary), doses up to 2 g/kg/day
Excerpt: as §1

[24] = human, in vivo, Terminal half-life
[25] = repeated dose (Q12) 3.3 g as GIAZO, N = 18
[26] = single dose 3.3 g as GIAZO, N = 18

T2 sequence (P33261 whole entry): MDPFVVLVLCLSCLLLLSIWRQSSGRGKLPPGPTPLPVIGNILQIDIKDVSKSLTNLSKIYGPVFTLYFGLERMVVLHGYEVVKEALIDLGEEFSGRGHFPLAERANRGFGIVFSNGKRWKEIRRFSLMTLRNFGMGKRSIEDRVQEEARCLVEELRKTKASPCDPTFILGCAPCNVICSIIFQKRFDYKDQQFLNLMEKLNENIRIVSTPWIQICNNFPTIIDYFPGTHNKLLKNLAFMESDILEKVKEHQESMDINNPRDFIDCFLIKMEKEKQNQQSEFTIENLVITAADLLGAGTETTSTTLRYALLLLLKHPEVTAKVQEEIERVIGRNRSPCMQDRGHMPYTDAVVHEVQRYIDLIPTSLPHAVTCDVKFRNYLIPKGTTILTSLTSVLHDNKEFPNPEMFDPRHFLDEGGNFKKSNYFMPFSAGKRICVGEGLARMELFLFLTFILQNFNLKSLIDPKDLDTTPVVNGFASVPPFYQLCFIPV
T1 sequence (P10635 whole entry): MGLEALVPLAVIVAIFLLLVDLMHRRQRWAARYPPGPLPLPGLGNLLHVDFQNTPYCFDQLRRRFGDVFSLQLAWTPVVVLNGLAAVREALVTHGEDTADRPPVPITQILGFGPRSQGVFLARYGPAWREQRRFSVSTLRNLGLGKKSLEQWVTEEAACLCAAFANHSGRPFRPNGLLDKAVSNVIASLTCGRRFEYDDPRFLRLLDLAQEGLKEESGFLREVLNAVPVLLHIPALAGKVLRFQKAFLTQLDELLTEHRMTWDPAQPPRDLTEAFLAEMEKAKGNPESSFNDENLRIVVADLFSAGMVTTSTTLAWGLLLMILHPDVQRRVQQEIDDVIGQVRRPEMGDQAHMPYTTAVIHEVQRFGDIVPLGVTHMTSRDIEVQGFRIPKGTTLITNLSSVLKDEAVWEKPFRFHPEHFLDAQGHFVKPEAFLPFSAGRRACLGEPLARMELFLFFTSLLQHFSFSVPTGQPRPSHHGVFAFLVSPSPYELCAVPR
T4 sequence (P11712 whole entry): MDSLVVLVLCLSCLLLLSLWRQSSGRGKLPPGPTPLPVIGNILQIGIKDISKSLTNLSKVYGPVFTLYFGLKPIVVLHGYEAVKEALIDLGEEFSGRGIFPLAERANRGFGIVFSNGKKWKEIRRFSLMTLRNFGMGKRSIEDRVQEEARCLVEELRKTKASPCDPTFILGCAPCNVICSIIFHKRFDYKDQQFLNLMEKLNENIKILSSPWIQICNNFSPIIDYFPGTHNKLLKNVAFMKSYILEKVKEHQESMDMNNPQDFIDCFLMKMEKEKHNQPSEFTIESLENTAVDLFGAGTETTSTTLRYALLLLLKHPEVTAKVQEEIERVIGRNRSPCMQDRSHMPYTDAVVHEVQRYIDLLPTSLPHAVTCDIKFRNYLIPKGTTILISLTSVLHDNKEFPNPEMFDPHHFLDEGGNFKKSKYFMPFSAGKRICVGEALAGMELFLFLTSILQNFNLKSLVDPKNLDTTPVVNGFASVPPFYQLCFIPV

O=C(O)CCNC(=O)c1ccc(/N=N/c2ccc(O)c(C(=O)O)c2)cc1 [balsalazide]
Inhibition of CYP2D6 (CYP2D6 [1]): not shown to inhibit | AUC(0-inf) (clinical [2]; human, in vivo): 1400 ng·h/mL | T1/2, mean (clinical [2]; human, in vivo): 1.9 h | Tmax (clinical [2]; human, in vivo): 0.5 h | AUC (clinical [2]; human, in vivo, AUCtau, mean): 1300 ng·h/mL | Cmax (clinical [2]; human, in vivo, Cmax, mean): 300 ng/mL | half-life (clinical [2]; [24]): 1.9 h | Change (reduction) of AUC0-∞ under fed conditions [3]: No significant changes | Reduction of mean Cmax under fed conditions [3]: 44% | Tmax ([3]; fasted): 0.5 h | Tmax ([3]; with a high fat meal): 2 h | Inhibition of CYP2C19 (CYP2C19 [4]): not shown to inhibit | Inhibition of CYP1A2 (CYP1A2 [5]): not shown to inhibit | Inhibition of CYP3A4/5 (CYP3A4/5 [6]): not shown to inhibit | Inhibition of CYP2C9 (CYP2C9 [7]): not shown to inhibit | Binding to plasma proteins (human plasma proteins [8]): ≥ 99%

Nc1ccc(O)c(C(=O)O)c1 [5-ASA, 5-aminosalicylic acid]
Inhibition of CYP2D6 (CYP2D6 [1]): not shown to inhibit | AUC(0-inf) (clinical [2]; human, in vivo): 8500 ng·h/mL | AUCtau, mean (clinical [2]; human, in vivo): 2200 ng·h/mL | Cmax, mean (clinical [2]; human, in vivo): 500 ng/mL | Tmax (clinical [2]; human, in vivo): 12 h | half-life (clinical [2]; human, in vivo, T1/2, mean): 9.5 h | half-life (clinical [2]; [24]): 9.5 h | Change (reduction) of AUC0-∞ under fed conditions [3]: 46% | Reduction of mean Cmax under fed conditions [3]: 65% | Binding to plasma proteins (human plasma proteins [9]): 43% | Inhibition of CYP2C19 (CYP2C19 [4]): not shown to inhibit | Inhibition of CYP1A2 (CYP1A2 [5]): not shown to inhibit | Inhibition of CYP2C9 (CYP2C9 [7]): not shown to inhibit | Tmax (clinical [10]): 12 h | Median Tmax [11]: 24 h

CC(=O)Nc1ccc(O)c(C(=O)O)c1 [N-Ac-5-ASA, N-acetyl-5-aminosalyicylic acid]
Terminal half-life (clinical [2]): 10.5 h | T1/2, mean (clinical [2]; repeated dose (Q12) 3.3 g as GIAZO): 7.2 h | AUCtau, mean (clinical [2]; [25]): 21000 ng·h/mL | Cmax, mean (clinical [2]; [25]): 2200 ng/mL | Tmax, median (clinical [2]; [25]): 10 h | Accumulation ratio based on AUC (clinical [2]; repeated doses of 3.3 g GIAZO every 12 hours, steady-state vs single dose): 3.6 | Median time of peak plasma concentration (Tmax) (clinical [2]; single dose 3.3 g GIAZO, 18 healthy subjects): 12 h | AUC0-∞, mean (clinical [2]; [26]): 33500 ng·h/mL | AUCtau, mean (clinical [2]; [26]): 5900 ng·h/mL | Cmax, mean (clinical [2]; [26]): 1200 ng/mL | Tmax, median (clinical [2]; [26]): 12 h | T1/2, mean (clinical [2]; single dose 3.3 g as GIAZO, N = 17 where marked b): 10.4^b hour | Mean % of dose excreted in urine over 12 hours (clinical [2]; steady-state, 3.3 g GIAZO every 12 hours, healthy volunteers): 15.6% | Percent of the oral dose measured in the blood / systemically absorbed ([12]; oral dose): ~12% | Median Tmax ([3]; fasted): 12 h | Change (reduction) of AUC0-∞ under fed conditions [3]: 17% | Reduction of mean Cmax under fed conditions [3]: 48% | Median Tmax ([3]; with a high fat meal): 24 h | Inhibition of CYP2C19 (CYP2C19 [13]): not shown to inhibit | Inhibition of CYP1A2 (CYP1A2 [14]): not shown to inhibit | Inhibition of CYP3A4/5 (CYP3A4/5 [15]): not shown to inhibit | Inhibition of CYP2C9 (CYP2C9 [16]): not shown to inhibit | Inhibition of CYP2D6 (CYP2D6 [17]): not shown to inhibit | Binding to plasma proteins (human plasma proteins [8]): 78%

O=C(O)CCNC(=O)c1ccc(/N=N/c2ccc(O)c(C(=O)O)c2)cc1 [balsalazide disodium, (E)-5-[[-4-[[(2-carboxyethyl)amino]carbonyl]phenyl]azo]-2-hydroxybenzoic acid, disodium salt, dihydrate]
Genotoxicity, Chinese hamster lung cell (CH V79/HGPRT) forward mutation test [18]: genotoxic | Genotoxicity, human lymphocyte chromosomal aberration test (human lymphocyte): not genotoxic | Genotoxicity, Ames test (Ames test): not genotoxic | Solubility in acid ([19]; acid): insoluble | Solubility in all other organic solvents ([19]; all other organic solvents): practically insoluble | Solubility in methanol and ethanol ([19]; methanol and ethanol): sparingly soluble | pH at which soluble ([19]; pH): at least 4.5 | Water solubility ([19]; water): highly water-soluble | Solubility in water and isotonic saline ([19]; water and isotonic saline): freely soluble | Effect on fertility and reproductive performance [20]: no effect on fertility and reproductive performance | Impaired fertility or harm to the fetus [20]: no evidence of impaired fertility or harm to the fetus | Genotoxicity, mouse lymphoma cell (L5178Y/TK+/−) forward mutation test [21]: not genotoxic | Impaired fertility or harm to the fetus [22]: no evidence of impaired fertility or harm to the fetus | Genotoxicity, mouse micronucleus test (Mouse micronucleus test): not genotoxic | Tumorigenicity [23]: not tumorigenic

Nc1ccc(C(=O)NCCC(=O)O)cc1 [4-ABA, 4-aminobenzoyl-β-alanine]
Inhibition of CYP2D6 (CYP2D6 [1]): not shown to inhibit | Absorption of the released carrier component ([12]; largely eliminated in the feces): poorly absorbed | Genotoxicity, human lymphocyte chromosomal aberration test (human lymphocyte): positive | Genotoxicity, Ames test (Ames test): not genotoxic | Inhibition of CYP2C19 (CYP2C19 [4]): not shown to inhibit | Inhibition of CYP1A2 (CYP1A2 [5]): not shown to inhibit | Inhibition of CYP3A4/5 (CYP3A4/5 [6]): not shown to inhibit | Genotoxicity, mouse lymphoma cell (L5178Y/TK+/−) forward mutation test [21]: not genotoxic | Inhibition of CYP2C9 (CYP2C9 [7]): not shown to inhibit
